From PMC9749938, “Alkyltriphenylphosphonium turns naphthoquinoneimidazoles into potent membrane depolarizers against mycobacteria” (RSC Medicinal Chemistry, 2022)
In brackets after ≈: the same amount, converted by molar mass. Read-outs that look alike come from different tables or passages of the source.

Assays:
Vero E6 cells = experiment: Cytotoxicity on Vero E6 cells; assay type: cell-based, African green monkey; details: Chlorocebus sabaeus, Vero C1008; 48 h; reduces growth of Vero E6 by 50% vs untreated controls
M. bovis BCG [1] = experiment: microbe, parasite or virus in culture; assay type: cell-based, Mycobacterium bovis BCG; details: for MIC50 / MIC90 / IC50: Mycobacterium tuberculosis variant bovis BCG, BCG; for MIC50: read-out: M. bovis BCG MIC50, concentration reducing growth by 50% vs untreated controls; for M. bovis BCG MIC50: concentration reducing growth by 50% vs untreated controls; for M. bovis BCG MIC90: concentration reducing growth by 90% vs untreated controls; for IC50: read-out: M. bovis BCG MIC50
[2] = Horseradish peroxidase-phenol red assay for H2O2 generation; assay type: biochemical; details: in vitro, with DTT
M. bovis BCG [3] = assay type: cell-based, Mycobacterium bovis BCG
M. bovis BCG-piniBAC-RFP = assay type: cell-based, Mycobacterium bovis BCG; details: 24 h, various concentrations
M. bovis BCG [4] = assay type: cell-based, Mycobacterium bovis BCG; details: 0.5× to 2× MIC90, 1.5 h + 30 min dye
M. bovis BCG [5] = experiment: microbe, parasite or virus in culture; assay type: cell-based; details: Mycobacterium tuberculosis variant bovis BCG, 120 h
M. bovis BCG [6] = assay type: cell-based, Mycobacterium bovis BCG; details: 4× MIC90, after 24 hours
M. bovis BCG [7] = assay type: cell-based, Mycobacterium bovis BCG; details: 4× MIC90, time course to 24 h and after
M. bovis BCG-pfurA-RFP = assay type: cell-based, Mycobacterium bovis BCG; details: 24 h, 37 °C
[8] = Aqueous solubility (Multiscreen solubility filter plates); assay type: physicochemical; details: pH 7.4, 24 h agitation
M. tb H37Rv = experiment: MIC determination by broth dilution on M. tb H37Rv; assay type: cell-based; details: Mycobacterium tuberculosis
M. bovis BCG [9] = assay type: cell-based, Mycobacterium bovis BCG; details: 4× MIC90, up to 24 h
M. bovis BCG [10] = assay type: cell-based, Mycobacterium bovis BCG; details: 4× MIC90, up to 24 h; remark: listed apart in the source
[11] = test system: inverted membrane vesicles of wild-type M. smegmatis mc^24517; experiment: NADH oxidation in inverted membrane vesicles, WT; assay type: biochemical; details: for EC50: WT M. smegmatis mc^24517, read-out: EC50 of activation of NADH oxidation, WT IMV
[12] = read-out: M. bovis BCG MIC90, concentration reducing growth by 90% vs untreated controls, broth dilution
[13] = Universal buffer with 1% DMSO, pH 7.4, 25 °C
[14] = read-out: MIC90 of control compounds (Fig. 4 legend), controls of redox assays, organism not restated

Cc1nc2c(n1CCC[P+](c1ccccc1)(c1ccccc1)c1ccccc1)C(=O)c1ccccc1C2=O.[I-] [Compound 3]
IC50 (Vero E6 cells): > 400 µM | MIC50 (M. bovis BCG [1]; broth dilution): 4 µM | MIC90 (M. bovis BCG [1]; [12]): 5.6 µM | M. bovis BCG MIC50 (M. bovis BCG [1]; broth dilution): 4.0 (4.0, 4.0) μM

Cc1nc2c(n1CCCCC[P+](c1ccccc1)(c1ccccc1)c1ccccc1)C(=O)c1ccccc1C2=O.[I-] [Compound 4]
IC50 (Vero E6 cells): > 400 µM | MIC50 (M. bovis BCG [1]; broth dilution): 2.4 µM | MIC90 (M. bovis BCG [1]; [12]): 4.6 µM | M. bovis BCG MIC90 (M. bovis BCG [1]; broth dilution): 4.6 (4.6, 4.6) μM

Cc1nc2c(n1CCCCCCC[P+](c1ccccc1)(c1ccccc1)c1ccccc1)C(=O)c1ccccc1C2=O.[I-] [Compound 5]
IC50 (Vero E6 cells): 48.4 µM | MIC50 (M. bovis BCG [1]; broth dilution): 1.2 µM | MIC90 (M. bovis BCG [1]; [12]): 2.3 µM | M. bovis BCG MIC50 (M. bovis BCG [1]; broth dilution): 1.2 (1.2, 1.2) μM

Cc1nc2c(n1CCCCCCCCC[P+](c1ccccc1)(c1ccccc1)c1ccccc1)C(=O)c1ccccc1C2=O.[I-] [Compound 6]
H2O2 generation, HRP-phenol red assay [2]: negligible H2O2 generation | Time-kill: CFU over 21 days (M. bovis BCG [3]): steady decrease of CFU up to day 8 | Induction of piniBAC promoter (RFP fluorescence) (M. bovis BCG-piniBAC-RFP): no increase in fluorescence | ROS formation in cultures (CellROX Green) (M. bovis BCG [4]): negligible levels of ROS | MBC (M. bovis BCG [5]; read-out: M. bovis BCG MBC90): 1.6 µM | MBC (M. bovis BCG [5]; read-out: M. bovis BCG MBC99): 3.1 µM | MBC (M. bovis BCG [5]; read-out: M. bovis BCG MBC99.9): 6.2 µM | CFU count of treated cultures (M. bovis BCG [6]): remained relatively constant | Intracellular ATP levels (M. bovis BCG [7]): initial drop in ATP levels | Induction of pfurA promoter (RFP fluorescence) (M. bovis BCG-pfurA-RFP): not observed | solubility at 24 h ([8]; 25 °C): 105.8 µM | solubility at 24 h [8, 13]: 106 µM | MIC50 (M. tb H37Rv): 0.37 µM | MIC90 (M. tb H37Rv): 0.8 µM | IC50 (Vero E6 cells): 12.4 µM | MIC50 (M. bovis BCG [1]; broth dilution): 0.59 µM | MIC90 (M. bovis BCG [1]; [12]): 1 µM | M. bovis BCG MIC50 (M. bovis BCG [1]; broth dilution): 0.58 (0.6, 0.59) μM | Membrane permeabilization (SYTO9/PI green/red ratio) (M. bovis BCG [9]): not accompanied by membrane permeabilization | Membrane potential (DiOC2(3) red/green ratio) (M. bovis BCG [10]): rapid and sustained loss of membrane potential

Cc1nc2c(n1CCCCCCCCCCC[P+](c1ccccc1)(c1ccccc1)c1ccccc1)C(=O)c1ccccc1C2=O.[I-] [Compound 7]
H2O2 generation, HRP-phenol red assay [2]: negligible H2O2 generation | Induction of piniBAC promoter (RFP fluorescence) (M. bovis BCG-piniBAC-RFP): no increase in fluorescence | ROS formation in cultures (CellROX Green) (M. bovis BCG [4]): negligible levels of ROS | MBC (M. bovis BCG [5]; read-out: M. bovis BCG MBC90): 1.6 µM | MBC (M. bovis BCG [5]; read-out: M. bovis BCG MBC99): 3.1 µM | MBC (M. bovis BCG [5]; read-out: M. bovis BCG MBC99.9): 6.2 µM | CFU count of treated cultures (M. bovis BCG [6]): remained relatively constant | Activation of NADH oxidation, WT IMV ([11]; WT M. smegmatis): negligible activation of NADH oxidation | Intracellular ATP levels (M. bovis BCG [7]): initial drop in ATP levels | Induction of pfurA promoter (RFP fluorescence) (M. bovis BCG-pfurA-RFP): not observed | solubility at 24 h [8, 13]: 27 µM | MIC50 (M. tb H37Rv): 1.15 µM | MIC90 (M. tb H37Rv): 1.8 µM | IC50 (Vero E6 cells): 5.6 µM | IC50 (M. bovis BCG [1]): 0.55 µM | MIC50 (M. bovis BCG [1]; broth dilution): 0.5 µM | MIC90 (M. bovis BCG [1]; [12]): ≤ 1 µM | Membrane permeabilization (SYTO9/PI green/red ratio) (M. bovis BCG [9]): not accompanied by membrane permeabilization | Membrane potential (DiOC2(3) red/green ratio) (M. bovis BCG [10]): rapid and sustained loss of membrane potential

CCCCCCC[P+](c1ccccc1)(c1ccccc1)c1ccccc1.[I-] [Compound 8]
MIC50 (M. bovis BCG [1]; broth dilution): 5.5 µM | MIC90 (M. bovis BCG [1]; [12]): 10.5 µM | M. bovis BCG MIC90 (M. bovis BCG [1]; broth dilution): 10.5 (10.2, 10.8) μM | Membrane potential (DiOC2(3) red/green ratio) (M. bovis BCG [10]): behaved similarly to 6 and 7

CCCCCCCCCCC[P+](c1ccccc1)(c1ccccc1)c1ccccc1.[I-] [Compound 9]
MIC50 (M. bovis BCG [1]; broth dilution): 2.1 µM | MIC90 (M. bovis BCG [1]; [12]): 2.8 µM | Membrane potential (DiOC2(3) red/green ratio) (M. bovis BCG [10]): behaved similarly to 6 and 7

Cc1nc2ccccc2n1CCCCCCC[P+](c1ccccc1)(c1ccccc1)c1ccccc1.[I-] [Compound 10]
IC50 (Vero E6 cells): 86.4 µM | MIC50 (M. bovis BCG [1]; broth dilution): 3.8 µM | MIC90 (M. bovis BCG [1]; [12]): 5.6 µM | M. bovis BCG MIC50 (M. bovis BCG [1]; broth dilution): 3.8 (3.8, 3.8) μM

Cc1nc2ccccc2n1CCCCCCCCCCC[P+](c1ccccc1)(c1ccccc1)c1ccccc1.[I-] [Compound 11]
IC50 (Vero E6 cells): 11.5 µM | MIC50 (M. bovis BCG [1]; broth dilution): 0.9 µM | MIC90 (M. bovis BCG [1]; [12]): 1.4 µM | M. bovis BCG MIC90 (M. bovis BCG [1]; broth dilution): 1.4 (1.4, 1.4) μM

Cc1cc(=O)n(CCCCCCC[P+](c2ccccc2)(c2ccccc2)c2ccccc2)c2c1C(=O)c1ccccc1C2=O.[I-] [Compound 12]
IC50 (Vero E6 cells): 5.9 µM | MIC50 (M. bovis BCG [1]; broth dilution): 1 µM | MIC90 (M. bovis BCG [1]; [12]): 1.4 µM | M. bovis BCG MIC90 (M. bovis BCG [1]; broth dilution): 1.4 (1.4, 1.4) μM

Cc1cc(=O)n(CCCCCCCCCCC[P+](c2ccccc2)(c2ccccc2)c2ccccc2)c2c1C(=O)c1ccccc1C2=O [Compound 13]
IC50 (Vero E6 cells): 2.1 µM | MIC50 (M. bovis BCG [1]; broth dilution): 3.8 µM | MIC90 (M. bovis BCG [1]; [12]): 5.7 µM

O=C1c2ccccc2C(=O)c2c1nc(C(F)(F)F)n2CCCCCCCCCCC[P+](c1ccccc1)(c1ccccc1)c1ccccc1 [Compound 14]
IC50 (Vero E6 cells): 5.6 µM | MIC50 (M. bovis BCG [1]; broth dilution): 1.8 µM | MIC90 (M. bovis BCG [1]; [12]): 2.8 µM

Cc1nc2c(n1CCCCCCCCCCC[P+](c1ccccc1)(c1ccccc1)c1ccccc1)C(=O)c1cccnc1C2=O [Compound 15]
IC50 (Vero E6 cells): 5.4 µM | IC50 (M. bovis BCG [1]): 0.6 µM | MIC50 (M. bovis BCG [1]; broth dilution): 0.65 µM | MIC90 (M. bovis BCG [1]; [12]): 1.2 µM

Cc1nc2c(n1CCCCCCC[n+]1ccccc1)C(=O)c1ccccc1C2=O.[I-] [Compound 16]
MIC50 (M. bovis BCG [1]; broth dilution): 28.7 µM | MIC90 (M. bovis BCG [1]; [12]): 48.5 µM | M. bovis BCG MIC50 (M. bovis BCG [1]; broth dilution): 28.7 (32.5, 25.0) μM | M. bovis BCG MIC90 (M. bovis BCG [1]; broth dilution): 48.5 (48.0, 49.0) μM

Cc1nc2c(n1CCCCCCC[P+](C1CCCCC1)(C1CCCCC1)C1CCCCC1)C(=O)c1ccccc1C2=O.[I-] [Compound 17]
IC50 (Vero E6 cells): 24.4 µM | MIC50 (M. bovis BCG [1]; broth dilution): 1.3 µM | MIC90 (M. bovis BCG [1]; [12]): 2.5 µM | M. bovis BCG MIC50 (M. bovis BCG [1]; broth dilution): 1.3 (1.3, 1.3) μM

Cc1nc2c(n1CCCCCCCCCCC[P+](C1CCCCC1)(C1CCCCC1)C1CCCCC1)C(=O)c1ccccc1C2=O.[I-] [Compound 18]
IC50 (Vero E6 cells): 4.1 µM | MIC50 (M. bovis BCG [1]; broth dilution): 0.6 µM | MIC90 (M. bovis BCG [1]; [12]): 0.9 µM | M. bovis BCG MIC50 (M. bovis BCG [1]; broth dilution): 0.6 (0.6, 0.6) μM

CCCCCC[P+](CCCCCC)(CCCCCC)CCCCCCCn1c(C)nc2c1C(=O)c1ccccc1C2=O.[I-] [Compound 19]
IC50 (Vero E6 cells): 5.2 µM | MIC50 (M. bovis BCG [1]; broth dilution): 0.7 µM | MIC90 (M. bovis BCG [1]; [12]): 1.4 µM | M. bovis BCG MIC50 (M. bovis BCG [1]; broth dilution): 0.7 (0.7, 0.7) μM | M. bovis BCG MIC90 (M. bovis BCG [1]; broth dilution): 1.4 (1.4, 1.4) μM

CCCCn1c2c([n+](C3CCC4(CCCCC4)CC3)c1C)C(=O)c1ccccc1C2=O.[Br-] [Compound 44, reference compound]
ROS formation in cultures (CellROX Green) (M. bovis BCG [4]): dose-dependent ROS formation | EC50 [11]: 0.76 µM | Induction of pfurA promoter (RFP fluorescence) (M. bovis BCG-pfurA-RFP): discernible dose-dependent increase in the fluorescence signal | MIC90 (M. bovis BCG [1]; [14]): 0.32 µM

CCCCCCCCn1c2c([n+](CCCC)c1C)C(=O)c1ccccc1C2=O.[Br-] [Compound 45, reference compound]
ROS formation in cultures (CellROX Green) (M. bovis BCG [4]): dose-dependent ROS formation | EC50 [11]: 0.2 µM | Induction of pfurA promoter (RFP fluorescence) (M. bovis BCG-pfurA-RFP): discernible dose-dependent increase in the fluorescence signal | MIC90 (M. bovis BCG [1]; [14]): 0.32 µM

NNC(=O)c1ccncc1 [INH, isoniazid, reference compound]
Time-kill: CFU over 21 days (M. bovis BCG [3]): rapid decrease in CFU in the first two time points | Induction of piniBAC promoter (RFP fluorescence) (M. bovis BCG-piniBAC-RFP): increased piniBAC promoter activity | MIC90 (M. bovis BCG [1]; [14]): 3.7 µM (≈ 0.507 µg/mL)

O=C1C=CC(=O)c2ccccc21 [NQ, 1,4-Naphthoquinone, reference compound]
MIC90 (M. bovis BCG [1]; [14]): 100 µM (≈ 15.8 µg/mL)
